# Data published in patent publication US8962664B2, “Selective glycosidase inhibitors and uses thereof” (Simon Fraser University, priority 2006, dated 2015).
# Entries after “also recorded” stand apart in the source; their conditions may differ.
# Experiments:
# Assay type in all cases: in vivo, Sprague-Dawley rats
# [1] = test system: O-GlcNAc levels in cardiac tissue; assay: Elevation of rat cardiac O-GlcNAc levels (IV); settings: rats, IV 50 mg/kg, 0 to 20 h, Western blot
# Protocol: The effect of intravenous (IV) administration of (3aR,5R,6S,7R,7aR)-2-(ethylamino)-5-(hydroxymethyl)-5,6,7,7a-tetrahydro-3aH-pyrano[3,2-d]thiazole-6,7-diol (Compound 25, hereinafter referred to as NAG-AE) on O-GlcNAc levels in cardiac tissue in Sprague-Dawley rats was measured. Animals were obtained from Charles-River as 5-week old healthy male Sprague-Dawley rats. Animals were given one week to acclimatize and at six weeks of age the appropriate treatment was initiated. Nine animals were given intravenous tail vein injections of 50 mg/kg NAG-AE; following injection, one animal was sacrificed at each of the following time points: 0, 1, 2, 4, 7, 10, 13, 16, and 20 h. In addition, one animal was given an injection of vehicle (PBS—pH 7.4) and sacrificed two hours later for use as a control. Tissues were removed from sacrificed animals as quickly as possible to minimize post-mortem delay. The hearts from each animal were immediately frozen in liquid nitrogen and stored at −80° C. until further use. Homogenization of the cardiac tissue was carried out by manual grinding followed by homogenization in cell lysis buffer (50 mM Tris, pH 8.0, 1 mM PMSF, 0.1% NP-40, 1 mM NAG-Bt) using a tissue homogenizer (IKA) at 4° C. Insoluble cell debris was removed by centrifugation at 17,900×g for 20 minutes at 4° C. and the resulting supernatant was stored at −20° C. until use. […]
# [2] = test system: tau phosphorylation levels in brain tissue; assay: Decrease of rat brain tau phosphorylation levels (oral NAG-AE); settings: rats, 200 mg/kg/day in drinking water for one day
# Protocol: The effect of oral administration of (3aR,5R,6S,7R,7aR)-2-(ethylamino)-5-(hydroxymethyl)-5,6,7,7a-tetrahydro-3aH-pyrano[3,2-d]thiazole-6,7-diol (Compound 25, NAG-AE) on tau phosphorylation levels in brain tissue in Sprague-Dawley rats was measured. All animals were obtained from Charles-River as 5-week old healthy male Sprague-Dawley rats. Animals were given one week to acclimatize and at six weeks of age the appropriate treatment was initiated. Three animals received 200 mg/kg/day of NAG-AE in their drinking water for one day. Three additional animals received drinking water containing no NAG-AE and were used as controls. Immediately following the dosing period, all animals were sacrificed and brains were removed, stored, and processed as described in Example 29.
# Western Blots. Samples were separated through 10% sodium dodecyl sulfate polyacrylamide gels (SDS-PAGE) and then transferred to nitrocellulose (Bio-Rad) membranes. Membranes were then blocked for 1 h at room temperature (RT) with 1% bovine serum albumin (BSA) in PBS containing 0.1% Tween-20 (Sigma) (PBS-T) and then subsequently probed with appropriate primary antibody delivered in 1% BSA in PBS-T for either 1 h at RT or overnight at 4° C. Membranes were then extensively washed with PBS-T, blocked again for 30 min with 1% BSA in PBS-T at RT and then probed with the appropriate HRP conjugated secondary antibody for 1 h at RT delivered in 1% BSA in PBS-T. Finally, the membranes were washed extensively and then developed with SuperSignal West Pico Chemiluminesence substrate (Pierce) and exposed to CL-XPosure Film (Pierce).
# Antibodies. Mouse monoclonal α-Tau-5 which recognizes the central region of tau in a phosphorylation state independent manner was purchased from Lab Vision Corporation and used at a dilution of 1:500. Rabbit polyclonal […], and α-Tau [pS^422] recognize phosphorylated Thr-231, Ser-396, and Ser-422 respectively, and were purchased from Biosource International and used at a dilution of 1:1000. Mouse monoclonal α-O-GlcNAc (CTD110.6) which recognizes the O-GlcNAc monosaccharide modification was purchased from Covance and used at a dilution of 1:2500. Mouse monoclonal α-actin (clone AC-40) was purchased from Sigma and was used at a dilution of 1:1000.
# [3] = Eight-month repeat dose toxicology study in rats: hematology (CBC) and serum chemistry
# Protocol: (§1) The toxicological effects of repeated oral administration of (3aR,5R,6S,7R,7aR)-5-(hydroxymethyl)-2-propyl-5,6,7,7a-tetrahydro-3aH-pyrano[3,2-d]thiazole-6,7-diol (NAG-Bt) to Sprague-Dawley rats over eight months was measured. All animals were obtained from Charles-River as 5-week old healthy male Sprague-Dawley rats. Animals were given one week to acclimatize and at six weeks of age the appropriate treatment was initiated. Eight animals were fed food containing 100 mg/kg/day of NAG-Bt for eight months. Eight additional animals fed with food containing no inhibitor were used as controls. […] After four months of dosing, blood and urine samples were collected from four rats in each group.
# [4] = Eight-month repeat dose toxicology study in rats: general observations and organ weights
# Protocol: as §1
# At the end of eight months, all animals were sacrificed and their organs removed and weighed.
# [5] = rat, in vivo, po, 100 mg/kg/day
smiles,measurement,setting,value
"CCNC1=N[C@@H]2[C@@H](O)[C@H](O)[C@@H](CO)O[C@@H]2S1 [NAG-AE, (3aR,5R,6S,7R,7aR)-2-(ethylamino)-5-(hydroxymethyl)-5,6,7,7a-tetrahydro-3aH-pyrano[3,2-d]thiazole-6,7-diol]",O-GlcNAc levels in cardiac tissue,[1],time-dependent elevation
same,"brain tau phosphorylation at Ser-396, Thr-231, and Ser-422",[2]; Western blot,reduction; also recorded: decreases
same,global levels of O-GlcNAc in brain,[2]; Western blot,increases
same,reduction of tau phosphorylation at Ser-396,[2]; densitometry,~3.1 fold
same,reduction of tau phosphorylation at Ser-422,[2]; densitometry,~1.8 fold
same,reduction of tau phosphorylation at Thr-231,[2]; densitometry,~2.7 fold
"CCCC1=N[C@@H]2[C@@H](O)[C@H](O)[C@@H](CO)O[C@@H]2S1 [NAG-Bt, (3aR,5R,6S,7R,7aR)-5-(hydroxymethyl)-2-propyl-5,6,7,7a-tetrahydro-3aH-pyrano[3,2-d]thiazole-6,7-diol]",ALT,[3]; [5],109.3 iu/l
same,AST,[3]; [5],202.3 iu/l
same,Albumin,[3]; [5],47.8 g/L
same,Albumin/Globulin,[3]; [5],1.6
same,Alkaline phsphatase,[3]; [5],168.3 iu/l
same,Anion Gap,[3]; [5],29.8 mM
same,Bilirubin total,[3]; [5],0.0 µM
same,Blood Urea Nitrogen,[3]; [5],8.9 mM
same,Calcium,[3]; [5],2.7 mM
same,Carbon Dioxide,[3]; [5],17.5 mM
same,Chloride,[3]; [5],104.5 mM
same,Cholesterol,[3]; [5],2.9 mM
same,Creatine Phosphokinase,[3]; [5],1324.5 iu/l
same,Creatinine,[3]; [5],29.0 µM
same,Gamma gt,[3]; [5],17.5 iu/l
same,Globulin,[3]; [5],30.3 g/L
same,Glucose,[3]; [5],2.0 mM
same,Hematocrit,[3]; [5],0.5 l/l
same,Hemoglobin,[3]; [5],169.5 g/L
same,Lymphs %,[3]; [5],82.3%
same,Mean Corp Hemoglobin,[3]; [5],16.9 pg
same,Mean Corp Vol.,[3]; [5],53.3 fL
same,Mean Platelet Vol,[3]; [5],9.3 fL
same,Monocytes %,[3]; [5],4.3%
same,Nonesterified Fatty Acids,[3]; [5],1.8 mM
same,Osmolality,[3]; [5],292.9 mmol/kg
same,Phosphorus,[3]; [5],2.2 mM
same,Platelet cnt,[3]; [5],561.8 10e9/L
same,Polys %,[3]; [5],10.8%
same,Potassium,[3]; [5],5.9 mM
same,RDW,[3]; [5],17.4
same,Red cell cnt,[3]; [5],10.1 10^12/L
same,Sodium,[3]; [5],145.8 mM
same,Sorbitol Dehydrogenase,[3]; [5],22.3 iU/L
same,Total Protein,[3]; [5],78.0 g/L
same,Triglyceride,[3]; [5],2.7 mM
same,White cell cnt,[3]; [5],3.8 1e9/l
same,"hematology (CBC), serum chemistry and urinalysis: differences between groups",[3]; [5],no statistically significant differences
same,"changes in ALT, AST, bilirubin or sorbitol dehydrogenase (liver toxicity)","[3]; rats, oral 100 mg/kg/day, four months",no changes
same,"body weight, food consumption, water consumption, and blood glucose levels",[4]; [5],no significant differences
same,gross pathological abnormalities or behavioural differences,[4]; [5],No gross pathological abnormalities or behavioural differences
same,toxicological consequences of long-term dosing,"[4]; rats, oral 100 mg/kg/day, eight months",no serious toxicological consequences
